Source: PMC6009935 (Journal of Enzyme Inhibition and Medicinal Chemistry, 2017)
Read-outs that look alike come from different tables or passages of the source.

Test system: G-protein
Experiment: Functional [35S]GTPγS binding assay on rat brain membrane homogenates
Format: biochemical
Method: The experiments were performed by [35S]GTPγS binding assays to control the GDP to GTP exchange of the α-subunit of Gi-protein. […] We examined the opioid receptor binding affinity of 5 in competition binding experiments, using opioid receptor selective radioligands. […]
Functional [35S]GTPγS binding experiments
The functional [35S]GTPγS binding experiments were performed as previously described,5,6 with modifications. Briefly the rat brain membrane homogenates containing ~10 µg/mL protein were incubated at 30 °C for 60 min in Tris-EGTA buffer (pH 7.4) composed of 50 mM Tris-HCl, 1 mM EGTA, 3 mM MgCl2, 100 mM NaCl, containing 20 MBq/0.05 cm3 [35S]GTPγS (0.05 nM) and […]
compound 9 together with excess GDP (30 µM) in a final volume of 1 mL. Total binding was measured in the absence of test compounds, non-specific binding was determined in the presence of 10 µM unlabelled GTPγS. The bound and unbound [35S]GTPγS was separated as described in the […]
competition binding assays section through Whatmann GF/B glass fibers. The radioactivity of the filters was also detected as described above. [35S]GTPγS binding experiments were performed in triplicates and repeated at least three times.
The specific binding of all radiolabeled compounds was calculated by the subtraction of non-specific binding from total binding and was given in percentage. The data was normalized to total specific binding, which was settled 100%, which in case of [35S]GTPγS also represents the basal activity of the G-protein. Experimental data were presented as means ± S.E.M in the function of the applied ligand concentration range in logarithm form. Points were fitted with the professional curve fitting program, GraphPad Prism 5.0 (GraphPad Prism Software Inc., San Diego, CA), using non-linear regression. In the radioligand competition binding assays the ‘One-site competition’, while in [35S]GTPγS binding assays the ‘Sigmoid dose-response’ equation was applied to determine IC50 (unlabeled ligand affinity) and the maximum G-protein efficacy (Emax) and ligand potency (EC50), respectively. For IC50 and EC50 values standard error is only given in their logarithm form by the curve fitting program due to the data representation. In competition binding experiments the Ki value was calculated according to Cheng-Prusoff equation.7 […]
binding assays. In figure B, 5 is indicated again for better comparison. Figures represents the specific binding of [35S]GTPγS in percentage in the presence of increasing concentrations (10-10-10-5 M) of the indicated ligands in rat brain membrane homogenates. “Basal” on the x-axis indicates the basal activity of the monitored G-protein, which is measured in the absence of the compounds and also represents the total specific binding of [35S]GTPγS. The level of basal activity was defined as 100% and is presented with a dotted line. Points represent means ± S.E.M. for at least three experiments performed in triplicate.

[1] = rat brain membrane homogenates, basal activity = 100%
[2] = rat brain membrane homogenates, logarithm of EC50, negative sign printed

SMILES	Emax ± S.E.M. (maximal G-protein efficacy) [1]	LogEC50 ± S.E.M. (ligand potency) [2]	EC50	Emax ± S.E.M. (maximal G-protein efficacy)	LogEC50 ± S.E.M. (ligand potency)	agonist, antagonist or inverse agonist nature	maximum efficacy (Emax) above basal activity	EC50 (rat brain membrane homogenates)
Cc1c(C(=O)NC2CCNCC2)nn(-c2ccc(Cl)cc2Cl)c1-n1cccc1 [Compound 5]	99.2 ± 46.1%	ambiguous ^*						
C[C@@H](NC(=O)[C@@H](N)Cc1ccc(O)cc1)C(=O)NCC(=O)N[C@@H](Cc1ccccc1)C(N)=O [Compound 10, Tyr-D-Ala-Gly-Phe-NH2, reference compound]			81.3 nM	161.5 ± 4.08%	−7.09 ± 0.22 (81.3 nM)	agonist	~70%	
Cc1c(C(=O)NC2CCN(C(=O)[C@H](Cc3ccccc3)NC(=O)CNC(=O)[C@@H](C)NC(=O)[C@@H](N)Cc3ccc(O)cc3)CC2)nn(-c2ccc(Cl)cc2Cl)c1-n1cccc1 [Compound 9]	36.62 ± 10.35%	−5.44 ± 0.21				inverse agonist		3600 nM
